These results are taken from PubChem BioAssay AID179 (DTP/NCI, 2004).

This experiment concerns CEM cells HIV-1 protection, formazan growth assay. The experiment is described as follows: NCI AIDS Antiviral Assay. The note with it: for IC50: measured here: growth of uninfected CEM cells. In short, it runs like this:
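Category rules: moderately active means at least 50% protection on retest, and confirmed active means 100% protection reproducibly. The underlying data came from a formazan growth assay in HIV-1-infected CEM cells.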

The structures appear in SMILES notation. Activity calls are given as the source filed them.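 Rule for the calls: active = compounds giving half or more protection of infected cells from virus-caused growth loss, again on retest; inactive = the rest.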 Where a SMILES comes first, the peptide text is derived from it. Where only a bound is given, the exact number is not on record here.

As to `N#CC1(C#N)C2CCCCC23OC(=N)C1(C#N)C(c1ccccc1)O3` (stereo not drawn), the EC50 was greater than 200 µM and the IC50 is 5.62 µM.
For `CCC(=O)N(c1ccccc1)C(C)CN1CCC(O)(c2cccc(C(F)(F)F)c2)CC1` (stereo not drawn) the same measures were greater than 200 µM and 74.1 µM.
Consider `CCOC(=O)/C=C/SCCC(=O)OC`, for which the EC50 was greater than 1150 µM and the IC50 worked out at 891 µM.
For `O=Cc1cc(C(=O)Nc2ccc(/C=C/c3ccc(NC(=O)c4cc(C=O)c5cccnc5c4O)cc3S(=O)(=O)O)c(S(=O)(=O)O)c2)c(O)c2ncccc12` the same measures were 24.5 µM and greater than 100 µM.
For `CCN(CC)c1cccc2c1/C(=N/O)CCCC2` the same measures were greater than 200 µM and 120 µM.
For `CC1=NCCC[N-]CC[N-]CCCN=C1C.[Ni+2].[O-][Cl+3]([O-])([O-])O` the same measures were greater than 200 µM and greater than 200 µM.
As for `COC(=O)c1c(O)c2c(c3c1OC(C)(C)CC3)OC(C)(C)CC2`, the EC50 was greater than 200 µM and the IC50 was determined as 93.3 µM.
As for `O=C(CCCCCCCCC(=O)OCC1OC(n2cnc3c(=O)[nH]cnc32)C(O)C1O)OCC1OC(n2cnc3c(=O)[nH]cnc32)C(O)C1O` (stereo not drawn), the EC50 was greater than 355 µM and the IC50 was greater than 355 µM.
On to `CC(C)(C)c1cc(-c2cc(C(C)(C)C)n(-c3ccccc3)n2)nn1-c1ccccc1`, for which the EC50 is greater than 200 µM and the IC50 is 89.1 µM.
For `CNc1ccc(OC)cc1S(=O)(=O)c1ccccc1[N+](=O)[O-]` the same measures were 148 µM and 182 µM.
Consider `O=C1c2c(O)ccc(O)c2C(=O)c2c(NCCCO)ccc(NCCCO)c21`, for which the EC50 is 13.5 µM and the 50% inhibitory concentration (IC50) was found to be 18.6 µM.
Turning to `CCOC(OCC)c1ccc(N(C)C)cc1.[C-]#[O+].[C-]#[O+].[C-]#[O+].[Cr]`, the EC50 was greater than 20 µM and the IC50 is 3.39 µM.
On to `COc1cc(/C=C2/CCS(=O)(=O)c3ccc(C)cc3C2=O)cc(OC)c1OC`, for which the EC50 is greater than 200 µM and the IC50 amounted to 3.72 µM.
For `COc1ccc(-c2oc3cc(OC)c(OC)c(O)c3c(=O)c2O)cc1O` the same measures were greater than 200 µM and 1.05 µM.
For `O=C(O)CN(CCO)CCN(CC(=O)O)CC(=O)O.[Fe+2]` the same measures were greater than 200 µM and greater than 200 µM.
Regarding `CN1CC(c2ccccc2)=Cc2c1ccc(N)c2N=N`, the EC50 is greater than 200 µM and the half-maximal inhibitory concentration (IC50) was greater than 200 µM.
Consider `N=C1SCc2c1sc1ccccc21`, for which the EC50 was greater than 56.2 µM and the IC50 is 28.8 µM.
Consider `O=P(O)(O)OC1C(OP(=O)(O)O)C(OP(=O)(O)O)C(OP(=O)(O)O)C(OP(=O)(O)O)C1OP(=O)(O)O.[Zn+2]` (stereo not drawn), for which the EC50 is greater than 100 µM and the IC50 was greater than 100 µM.
On to `C[C@H](C(=O)C12CC3CC(CC(C3)C1)C2)[C@H](O)c1ccccc1`, for which the result was inactive.
As for `N#C/C(=C\c1ccc(O)c(O)c1)C(=O)OCc1ccccc1COC(=O)/C(C#N)=C/c1ccc(O)c(O)c1`, the EC50 was greater than 200 µM and the half-inhibitory concentration (IC50) stood at 8.71 µM.
For the compound `CC(C)C(NC(=O)C(N)CCC(=O)O)C(=O)O` (stereo not drawn) (H-Glu-Val-OH; configuration not given here), the result was inactive.
For `Cn1c(=O)ccc2ccc(N(CCO)CCO)nc21`, the EC50 is greater than 200 µM and the IC50 was greater than 200 µM.
For the compound `CCOC(=O)c1cccc(=O)c(C(=O)OCC)c1`, the outcome was inactive.
With `CN(C)c1ccc(/C=C2\C=Cc3ccccc32)cc1`, the result was inactive.
Consider `N/N=C1/CCN2CCCc3cccc1c32`, for which the EC50 was greater than 200 µM and the IC50 was found to be 182 µM.
With `O=C(O)c1c[nH]c2c([N+](=O)[O-])cccc2c1=O`, the EC50 was greater than 1070 µM, the outcome was inactive and the IC50 turned out to be 9.12 µM.
Consider `C[N+]12CCCc3cc(CO)cc(c31)CCC2`, for which the EC50 is 112 µM and the half-inhibitory concentration (IC50) turned out to be 603 µM.
For `C=C1N(S(=O)(=O)c2ccc(C)cc2)C(=O)OCC12CCCC2` the same measures were greater than 200 µM and 44.7 µM.
